Assay results reported in publication PMC8815882, “Screening the pandemic response box identified benzimidazole carbamates, Olorofim and ravuconazole as promising drug candidates for the treatment of eumycetoma” (PLoS Neglected Tropical Diseases, 2022).
Where two headings read alike, the source gives them in different places.

Tested on: M. mycetomatis genome strain MM55
Assay: CLSI M38-A2 based in vitro susceptibility screening (XTT or resazurin), growth at fixed concentration
Assay type: cell-based, Madurella mycetomatis
Conditions: Madurella mycetomatis; for Percent fungal survival at 100 µM: read-out: Percentage survival at 100um, 100 uM A (second replicate column)
[1] = mean of replicates, read-out: Percentage survival at 25um, 25 uM mean
[2] = replicate A, read-out: Percentage survival at 25um, 25 um A
[3] = replicate B, read-out: Percentage survival at 25um, 25 uM B
[4] = replicate C, read-out: Percentage survival at 25um, 25 uM C
[5] = mean of replicates, read-out: Percentage survival at 100um, 100 uM mean
[6] = replicate 1, read-out: Percentage survival at 100um, 100 uM A
[7] = replicate 2, read-out: Percentage survival at 100um, 100 uM A
[8] = replicate 3, read-out: Percentage survival at 100um, 100 uM A
[9] = mean, read-out: Percentage survival at 25um, 25 uM mean
[10] = mean, read-out: Percentage survival at 100um, 100 uM mean
[11] = replicate (first column), read-out: Percentage survival at 100um, 100 uM A
[12] = replicate (second column), read-out: Percentage survival at 100um, 100 uM A
[13] = replicate (third column), read-out: Percentage survival at 100um, 100 uM A
[14] = mean of replicates, MM55, read-out: Percentage survival at 25um, 25 uM mean
[15] = replicate A, MM55, read-out: Percentage survival at 25um, 25 um A
[16] = replicate B, MM55, read-out: Percentage survival at 25um, 25 uM B
[17] = replicate C, MM55, read-out: Percentage survival at 25um, 25 uM C
[18] = mean of replicates, MM55, read-out: Percentage survival at 100um, 100 uM mean
[19] = replicate 1, MM55, read-out: Percentage survival at 100um, 100 uM A
[20] = replicate 2, MM55, read-out: Percentage survival at 100um, 100 uM A
[21] = replicate 3, MM55, read-out: Percentage survival at 100um, 100 uM A
[22] = mean of three, M. mycetomatis MM55, read-out: Percentage survival at 25um, 25 uM mean
[23] = replicate A, M. mycetomatis MM55, read-out: Percentage survival at 25um, 25 um A
[24] = replicate B, M. mycetomatis MM55, read-out: Percentage survival at 25um, 25 uM B
[25] = replicate C, M. mycetomatis MM55, read-out: Percentage survival at 25um, 25 uM C
[26] = mean of three, M. mycetomatis MM55, read-out: Percentage survival at 100um, 100 uM mean
[27] = replicate 1, M. mycetomatis MM55, read-out: Percentage survival at 100um, 100 uM A (first replicate column)
[28] = replicate 2, M. mycetomatis MM55
[29] = replicate 3, M. mycetomatis MM55, read-out: Percentage survival at 100um, 100 uM A (third replicate column)
[30] = mean of three replicates, read-out: Percentage survival at 25um, 25 uM mean
[31] = first replicate column, read-out: Percentage survival at 100um, 100 uM A
[32] = mean of three replicates, read-out: Percentage survival at 100um, 100 uM mean
[33] = second replicate column, read-out: Percentage survival at 100um, 100 uM A
[34] = third replicate column, read-out: Percentage survival at 100um, 100 uM A
[35] = replicate 1, read-out: Percentage survival at 100um, 100 uM A (first replicate column)
[36] = replicate 3, read-out: Percentage survival at 100um, 100 uM A (third replicate column)

O=C(O)c1ccc(-c2ccc(O[C@H]3O[C@H](CO)[C@@H](O)[C@H](O)[C@@H]3O)cc2)cc1 [MMV1633970]
activity at 25 µM [1]: 80.8%
activity at 25 µM [2]: 83.4%
activity at 25 µM [3]: 84.3%
activity at 25 µM [4]: 74.7%
activity at 100 µM [5]: 73.9%
activity at 100 µM [6]: 68.9%
activity at 100 µM [7]: 82.1%
activity at 100 µM [8]: 70.6%

CN(C/C=C/C#CC(C)(C)C)Cc1cccc2ccccc12 [MMV1634359]
activity at 25 µM [9]: 97.3%
activity at 25 µM [2]: 132%
activity at 25 µM [3]: 99.8%
activity at 25 µM [4]: 60.4%
activity at 100 µM [10]: 81.5%
activity at 100 µM [11]: 86.8%
activity at 100 µM [12]: 58.9%
activity at 100 µM [13]: 98.8%

O=C1c2cccc3cccc(c23)C(=O)N1CC1CO1 (stereo not drawn) [MMV1634360]
activity at 25 µM [9]: 61%
activity at 25 µM [2]: 65.4%
activity at 25 µM [3]: 62.1%
activity at 25 µM [4]: 55.4%
activity at 100 µM [10]: 2.87%
activity at 100 µM [11]: -2.26%
activity at 100 µM [12]: 3.27%
activity at 100 µM [13]: 7.61%

N[C@H]1CCC[C@H]1C(=O)O [MMV1634361]
activity at 25 µM [14]: 92.1%
activity at 25 µM [15]: 98.3%
activity at 25 µM [16]: 98.6%
activity at 25 µM [17]: 79.4%
activity at 100 µM [18]: 96.6%
activity at 100 µM [19]: 90.9%
activity at 100 µM [20]: 120%
activity at 100 µM [21]: 79.2%

OB1OCc2cc(Cl)ccc21 [MMV1634363]
activity at 25 µM [9]: 33.1%
activity at 25 µM [2]: 51.2%
activity at 25 µM [3]: -4.3%
activity at 25 µM [4]: 52.5%
activity at 100 µM [10]: 61.8%
activity at 100 µM [11]: 40.7%
activity at 100 µM [12]: 85.6%
activity at 100 µM [13]: 59.1%

CCc1cc(Nc2cc(=O)n(CCN3CCN(C(=O)c4ccccc4)CC3)c(=O)[nH]2)ccc1C [MMV1634383]
activity at 25 µM [1]: 84%
activity at 25 µM [2]: 86.7%
activity at 25 µM [3]: 79.7%
activity at 25 µM [4]: 85.7%
activity at 100 µM [5]: 88.4%
activity at 100 µM [6]: 93%
activity at 100 µM [7]: 83.3%
activity at 100 µM [8]: 89%

CCN(CC)S(=O)(=O)c1ccc(Cl)c(C(=O)Nc2sc3c(c2C#N)CCCC3)c1 [MMV1634384]
activity at 25 µM [1]: 89.4%
activity at 25 µM [2]: 87.9%
activity at 25 µM [3]: 80.1%
activity at 25 µM [4]: 100%
activity at 100 µM [5]: 89.5%
activity at 100 µM [6]: 89.4%
activity at 100 µM [7]: 89.9%
activity at 100 µM [8]: 89.3%

Nc1ccc(-c2nc3cc(C(F)(F)F)ccc3n2C23CC4CC(CC(C4)C2)C3)cc1 [MMV1634385]
activity at 25 µM [14]: 82.4%
activity at 25 µM [15]: 108%
activity at 25 µM [16]: 85.4%
activity at 25 µM [17]: 54%
activity at 100 µM [18]: 57.5%
activity at 100 µM [19]: 61.2%
activity at 100 µM [20]: 52.2%
activity at 100 µM [21]: 59.1%

CC(C)(C)c1ccc(OCCn2nc(C(=O)O)c3ccccc3c2=O)cc1 [MMV1634387]
activity at 25 µM [22]: 81.2%
activity at 25 µM [23]: 89.9%
activity at 25 µM [24]: 84.5%
activity at 25 µM [25]: 69.2%
activity at 100 µM [26]: 66.6%
activity at 100 µM [27]: 80.6%
Percent fungal survival at 100 µM [28]: 37.8%
activity at 100 µM [29]: 81.3%

CC(C)N(c1cc(-c2ccccc2)sc1C(=O)O)C(=O)[C@H]1CC[C@H](C)CC1 [MMV1634388]
activity at 25 µM [30]: 90%
activity at 25 µM [2]: 89.7%
activity at 25 µM [3]: 99.2%
activity at 25 µM [4]: 81.2%
activity at 100 µM [31]: 83.3%
activity at 100 µM [32]: 76.1%
activity at 100 µM [33]: 68.1%
activity at 100 µM [34]: 77%

Nc1nc(C(F)(F)F)cc2c1[nH]c(=O)n2Cc1ccccc1 [MMV1634389]
activity at 25 µM [1]: 83.5%
activity at 25 µM [2]: 74.5%
activity at 25 µM [3]: 96.8%
activity at 25 µM [4]: 79.4%
activity at 100 µM [5]: 61.6%
activity at 100 µM [35]: 36.1%
Percent fungal survival at 100 µM (replicate 2): 67.1%
activity at 100 µM [36]: 81.6%

CCNC(=O)Nc1cc2c(-c3ccnc(C)c3)ccc(CNC(=O)OC)c2cn1 [MMV1634390]
activity at 25 µM [22]: 86.2%
activity at 25 µM [23]: 98.4%
activity at 25 µM [24]: 81%
activity at 25 µM [25]: 79.2%
activity at 100 µM [26]: 52.4%
activity at 100 µM [27]: 60.4%
Percent fungal survival at 100 µM [28]: 7.35%
activity at 100 µM [29]: 89.5%

Cn1cc(NC(=O)c2cc(NC(=O)c3ccc(/C=C/c4cnc5ccccc5c4)cc3)cn2C)cc1C(=O)NCCN1CCOCC1 [MMV1634391]
activity at 25 µM [1]: 73.9%
activity at 25 µM [2]: 63.4%
activity at 25 µM [3]: 79.1%
activity at 25 µM [4]: 79.2%
activity at 100 µM [5]: 60.7%
activity at 100 µM [6]: 61%
activity at 100 µM [7]: 53.1%
activity at 100 µM [8]: 68%

CCCCc1ccc(-c2nc(C)c(C(=O)OC)s2)cc1 [MMV1634392]
activity at 25 µM [14]: 77.2%
activity at 25 µM [15]: 84.6%
activity at 25 µM [16]: 81.9%
activity at 25 µM [17]: 65.1%
activity at 100 µM [18]: 65.3%
activity at 100 µM [19]: 48.8%
activity at 100 µM [20]: 54.8%
activity at 100 µM [21]: 92.3%

CC(C)(C)c1ccc(C(Cn2cccc(C(F)(F)F)c2=O)NC2Cc3ccccc3C2)cc1 (stereo not drawn) [MMV1634393]
activity at 25 µM [14]: 62.5%
activity at 25 µM [15]: 51.3%
activity at 25 µM [16]: 64.6%
activity at 25 µM [17]: 71.7%
activity at 100 µM [18]: 66.7%
activity at 100 µM [19]: 63.7%
activity at 100 µM [20]: 74.2%
activity at 100 µM [21]: 62.2%

Cc1ccc(N2CCC(CCOc3ccc(S(C)(=O)=O)cc3)CC2)nn1 [MMV1634394]
activity at 25 µM [30]: 86.9%
activity at 25 µM [2]: 79.1%
activity at 25 µM [3]: 80.9%
activity at 25 µM [4]: 101%
activity at 100 µM [31]: 52.8%
activity at 100 µM [32]: 63.9%
activity at 100 µM [33]: 75.2%
activity at 100 µM [34]: 63.7%

CCc1c(OCC2CCC2)c2cc(F)ccc2[nH]c1=O [MMV1634395]
activity at 25 µM [30]: 67.1%
activity at 25 µM [2]: 59.4%
activity at 25 µM [3]: 71.5%
activity at 25 µM [4]: 70.4%
activity at 100 µM [31]: 62.9%
activity at 100 µM [32]: 55.6%
activity at 100 µM [33]: 45.1%
activity at 100 µM [34]: 58.8%

O=C(c1nc2c(C(F)(F)F)cc(C3CC3)cn2c1Cl)N1CCN([C@H]2CC[C@H](O)CC2)C(=O)C1 [MMV1634396]
activity at 25 µM [30]: 94.9%
activity at 25 µM [2]: 99.5%
activity at 25 µM [3]: 104%
activity at 25 µM [4]: 81.4%
activity at 100 µM [31]: 92.3%
activity at 100 µM [32]: 86.8%
activity at 100 µM [33]: 90.6%
activity at 100 µM [34]: 77.4%

COc1ccc(CNC(=O)C2CCN([C@H](C)c3cccc4ccccc34)CC2)cc1 [MMV1634397]
activity at 25 µM [14]: 45.7%
activity at 25 µM [15]: 62.4%
activity at 25 µM [16]: 66.9%
activity at 25 µM [17]: 7.76%
activity at 100 µM [18]: 4.13%
activity at 100 µM [19]: 3.82%
activity at 100 µM [20]: -0.868%
activity at 100 µM [21]: 9.43%

CCOc1ccc(/C=N/NC(=O)C2CC2c2ccc(C(C)(C)C)cc2)cc1OCC (stereo not drawn) [MMV1634398]
activity at 25 µM [1]: 85.9%
activity at 25 µM [2]: 88.3%
activity at 25 µM [3]: 97.5%
activity at 25 µM [4]: 72%
activity at 100 µM [5]: 81.1%
activity at 100 µM [35]: 88.5%
Percent fungal survival at 100 µM (replicate 2): 87.7%
activity at 100 µM [36]: 67.1%

Cc1ccc(C)c(OCCCCCCN2C[C@H](O)[C@@H](O)[C@H](O)[C@H]2CO)c1 [MMV1634401]
activity at 25 µM [30]: 82.7%
activity at 25 µM [2]: 64.4%
activity at 25 µM [3]: 87.6%
activity at 25 µM [4]: 96.1%
activity at 100 µM [31]: 83.4%
activity at 100 µM [32]: 82.2%
activity at 100 µM [33]: 82.8%
activity at 100 µM [34]: 80.5%
